Target: human NaV 1.8 channels stably expressed in HEK 293 cells (Homo sapiens (Human), UniProt Q9Y5Y9)
Test: Nav1.8 Qube automated patch-clamp assay
Format: cell-based
Details: human NaV1.8 in HEK 293 cells, whole-cell voltage clamp, room temperature; read-out: IC50 values (nM) for Examples in the Nav1.8 Qube Assay
Experimental: Compounds were tested on human NaV 1.8 and NaV1.5 channels stably expressed in human embryo kidney (HEK) 293 cells. Sodium current measurements on Qube® were conducted as follows: automated 384-well patch-clamp assays on the Qube® platform (Sophion Biosciences) were used to measure the inhibition of sodium flow through human NaV1.8 and NaV1.5 channels. Whole-cell voltage-clamp recordings were performed in QChips® (Sophion Biosciences) at room temperature. NaV1.8 current measurements on Qube® were obtained as follows: NaV1.8 currents were elicited with a 10 second 1 Hertz (Hz) pulse train from a holding potential of −90 millivolts (mV), delivered to the cells once per minute in the control condition (DMSO only) and after compound addition. The 1 hertz pulse train stimulation consisted of ten test pulses to 10 millivolt (mV) for 20 milliseconds (ms), each of which was followed by a 980 millisecond repolarization to −67 millivolts. At the end of the 10 second pulse train stimulation, a 5 second hyperpolarization step to −100 millivolt (mV) was used to recover NaV1.8 from fast inactivation. The peak currents elicited by the 1st and 10th test pulses were used to determine IC50 values for resting inhibition and inactivated state inhibition. NaV1.5 current measurements on Qube® were obtained as follows: NaV1.5 currents were elicited with a 20 second 3 Hertz pulse train in the control condition (DMSO only) and after compound addition. The pulse train consisted of sixty 20 millisecond test pulses to 0 millivolt from a holding potential of −80 millivolt (mV). The average peak currents elicited by the last 3 test pulses were used to determine IC50 values for NaV1.5 inhibition.
The following buffers were used for the Qube® recordings: External buffer for NaV1.8 Qube® recording: 150 NaCl, 2 CaCl2, 5 KCl, 1 MgCl2, 10 HEPES, 12 Dextrose; External buffer for Qube® NaV1.5 recording: 120 N-Methyl-D-Glucamine, 40 NaCl, 1 KCl, 2.7 CaCl2), 5 HEPES, 0.5 MgCl2; and Internal buffer for Qube® recording: 120 CsF, 30 CsCl, 10 EGTA, 5 HEPES, 5 NaF, 2 MgCl2.
For all Qube® experiments offline analysis was used to determine percent inhibition as a function of drug concentration. IC50 values were determined by fitting to the Hill equation.

human NaV 1.8 channels stably expressed in HEK 293 cells, sequence (Q9Y5Y9 whole entry): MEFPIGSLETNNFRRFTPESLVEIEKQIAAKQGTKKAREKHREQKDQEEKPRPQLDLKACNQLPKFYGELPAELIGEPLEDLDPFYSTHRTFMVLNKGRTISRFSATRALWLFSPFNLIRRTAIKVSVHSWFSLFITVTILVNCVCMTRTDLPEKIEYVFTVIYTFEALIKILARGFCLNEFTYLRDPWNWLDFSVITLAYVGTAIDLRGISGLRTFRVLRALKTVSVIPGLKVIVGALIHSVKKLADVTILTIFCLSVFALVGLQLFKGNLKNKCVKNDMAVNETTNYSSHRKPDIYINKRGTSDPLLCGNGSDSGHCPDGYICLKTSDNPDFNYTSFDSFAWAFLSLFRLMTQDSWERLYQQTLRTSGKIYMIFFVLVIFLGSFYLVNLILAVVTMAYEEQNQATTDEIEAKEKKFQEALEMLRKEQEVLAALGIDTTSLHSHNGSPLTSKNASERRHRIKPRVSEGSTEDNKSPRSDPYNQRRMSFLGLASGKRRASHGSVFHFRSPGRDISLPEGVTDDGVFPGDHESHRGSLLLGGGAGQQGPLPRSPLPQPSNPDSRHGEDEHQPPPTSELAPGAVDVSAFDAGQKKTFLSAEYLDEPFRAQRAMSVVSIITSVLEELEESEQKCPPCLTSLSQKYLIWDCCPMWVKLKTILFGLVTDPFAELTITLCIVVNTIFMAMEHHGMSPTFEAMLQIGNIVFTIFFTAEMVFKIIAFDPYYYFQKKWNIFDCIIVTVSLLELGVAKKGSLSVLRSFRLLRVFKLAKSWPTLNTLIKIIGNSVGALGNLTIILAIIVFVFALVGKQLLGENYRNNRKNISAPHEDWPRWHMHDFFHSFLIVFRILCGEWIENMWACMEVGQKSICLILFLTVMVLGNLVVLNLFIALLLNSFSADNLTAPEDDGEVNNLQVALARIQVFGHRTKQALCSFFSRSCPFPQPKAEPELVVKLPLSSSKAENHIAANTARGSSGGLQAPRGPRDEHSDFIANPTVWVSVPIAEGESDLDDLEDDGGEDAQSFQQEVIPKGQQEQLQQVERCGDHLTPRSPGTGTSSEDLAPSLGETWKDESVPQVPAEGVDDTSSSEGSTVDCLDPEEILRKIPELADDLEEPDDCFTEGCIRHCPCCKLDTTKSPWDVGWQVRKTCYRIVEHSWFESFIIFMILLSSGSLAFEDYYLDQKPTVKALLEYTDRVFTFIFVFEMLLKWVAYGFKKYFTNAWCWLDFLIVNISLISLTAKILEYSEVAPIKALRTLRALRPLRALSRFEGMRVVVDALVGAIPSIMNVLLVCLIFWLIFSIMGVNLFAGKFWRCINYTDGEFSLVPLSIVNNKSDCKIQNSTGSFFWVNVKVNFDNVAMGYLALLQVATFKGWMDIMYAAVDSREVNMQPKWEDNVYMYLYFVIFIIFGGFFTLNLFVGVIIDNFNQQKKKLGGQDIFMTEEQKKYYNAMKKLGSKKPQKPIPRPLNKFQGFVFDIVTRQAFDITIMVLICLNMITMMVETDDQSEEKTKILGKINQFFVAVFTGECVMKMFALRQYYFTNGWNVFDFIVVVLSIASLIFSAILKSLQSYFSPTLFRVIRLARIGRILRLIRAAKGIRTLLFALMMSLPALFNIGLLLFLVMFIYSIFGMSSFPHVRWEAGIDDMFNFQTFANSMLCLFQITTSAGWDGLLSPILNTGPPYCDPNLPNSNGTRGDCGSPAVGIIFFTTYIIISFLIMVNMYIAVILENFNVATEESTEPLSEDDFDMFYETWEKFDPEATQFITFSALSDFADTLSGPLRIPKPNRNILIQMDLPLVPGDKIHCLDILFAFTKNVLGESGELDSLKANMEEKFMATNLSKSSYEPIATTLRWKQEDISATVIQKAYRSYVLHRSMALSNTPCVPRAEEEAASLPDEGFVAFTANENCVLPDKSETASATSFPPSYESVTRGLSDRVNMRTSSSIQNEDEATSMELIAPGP

SMILES	IC50
C[C@@H]1C(=O)NCCN1C(=O)NC(c1ccc(OC(F)(F)F)c(F)c1)c1cnc(C(F)(F)F)c(Cl)c1 (single isomer, unassigned) [Example 21B, (2R)-N-((S or R)-(5-chloro-6-(trifluoro-methyl)pyridin-3-yl)(3-fluoro-4-(trifluoro-methoxy)phenyl)methyl)-2-methyl-3-oxo-piperazine-1-carboxamide]	7.71 nM
CC(C)C1C(=O)NCCN1C(=O)NC(c1ccc(C(F)(F)F)nc1)c1ccc(F)c(Cl)c1F (single isomer, unassigned) [Example 39B, N-((R or S)-(3-chloro-2,4-difluorophenyl)(6-(trifluoromethyl)pyridin-3-yl)methyl)-(S or R)-2-isopropyl-3-oxo-piperazine-1-carboxamide]	15.2 nM
C[C@@H]1C(=O)NCCN1C(=O)NC(c1ccc(C(F)(F)F)nc1)c1ccc(F)c(Cl)c1F (single isomer, unassigned) [Example 15B]	59.9 nM
C[C@@H]1C(=O)NCCN1C(=O)NC(c1ccc(C(F)(F)F)nc1)c1ccc(F)c(OC(F)(F)F)c1 (single isomer, unassigned) [Example 19B, (2R)-N-((S or R)-(4-fluoro-3-(trifluoro-methoxy)phenyl)(6-(trifluoromethyl)pyridin-3-yl)methyl)-2-methyl-3-oxopiperazine-1-carboxamide]	72.6 nM
C[C@@H]1C(=O)NCCN1C(=O)NC(c1ccc(C(F)(F)F)nc1)c1ccc(F)c(OC(F)(F)F)c1 (single isomer, unassigned) [Example 19A, (2R)-N-((R or S)-(4-fluoro-3-(trifluoro-methoxy)phenyl)(6-(trifluoromethyl)pyridin-3-yl)methyl)-2-methyl-3-oxopiperazine-1-carboxamide]	41.1 nM
C[C@@H]1C(=O)NCCN1C(=O)NC(c1ccc(F)c(Cl)c1)c1cnn(CC(F)(F)F)c1 (single isomer, unassigned) [Example 67B, (2R)-N-((S or R)-(3-chloro-4-fluorophenyl)(1-(2,2,2-trifluoroethyl)-1H-pyrazol-4-yl)methyl)-2-methyl-3-oxopiperazine-1-carboxamide]	42 nM
C[C@@H]1C(=O)NCCN1C(=O)NC(c1ccc(F)c(Cl)c1)c1ccc(Cl)c(C(F)(F)F)n1 (single isomer, unassigned) [Example 79, (2R)-N-((R or S)-(3-chloro-4-fluoro-phenyl)(5-chloro-6-(trifluoromethyl)pyridin-2-yl)methyl)-2-methyl-3-oxopiperazine-1-carboxamide]	0.58 nM
C[C@@H]1C(=O)NCCN1C(=O)NC(c1ccc(OC(F)(F)F)cc1)c1cnc(C(F)(F)F)c(Cl)c1 (single isomer, unassigned) [Example 20B, (2R)-N-((S or R)-(5-chloro-6-(trifluoro-methyl)pyridin-3-yl)(4-(trifluoromethoxy)phenyl)methyl)-2-methyl-3-oxopiperazine-1-carboxamide]	4 nM
C[C@@H]1C(=O)NCCN1C(=O)NC(c1cnc(C(F)(F)F)c(F)c1)c1ccc(F)c(Cl)c1F (single isomer, unassigned) [Example 34, (2R)—N—((R or S)-(3-chloro-2,4-difluorophenyl)(5-fluoro-6-(trifluoromethyl)pyridin-3-yl)methyl)-2-methyl-3-oxopiperazine-1-carboxamide]	2.12 nM
O=C1NCCN(C(=O)NC(c2cnc(C(F)(F)F)c(F)c2)c2ccc(F)c(Cl)c2F)C1C1CC1 (single isomer, unassigned) [Example 37B, N-((R or S)-(3-chloro-2,4-difluorophenyl)(5-fluoro-6-(trifluoro-methyl)pyridin-3-yl)methyl)-(S or R)-2-cyclopropyl-3-oxopiperazine-1-carboxamide]	188 nM
C[C@@H]1C(=O)NCCN1C(=O)NC(c1ccc(F)c(Cl)c1)c1cccc(OC(F)F)n1 (single isomer, unassigned) [Example 72A]	195 nM
C[C@@H]1C(=O)NCCN1C(=O)NC(c1ccc(Cl)c(C(F)(F)F)n1)c1ccc(F)c(Cl)c1F (single isomer, unassigned) [Example 77B, (2R)-N-((S or R)-(3-chloro-2,4-difluorophenyl)(5-chloro-6-(trifluoromethyl)pyridin-2-yl)methyl)-2-methyl-3-oxopiperazine-1-carboxamide]	1.06 nM
C[C@@H]1C(=O)NCCN1C(=O)NC(c1ccc(C(F)(F)F)nc1)c1ccc(Cl)c(Cl)c1F (single isomer, unassigned) [Example 29B]	3.42 nM
C[C@@H]1C(=O)NCCN1C(=O)NC(c1ccnc(OCC(F)(F)F)c1)c1ccc(F)c(Cl)c1 (single isomer, unassigned) [Example 71B, (2R)-N-((S or R)-(3-chloro-4-fluorophenyl)(2-(2,2,2-trifluoro-ethoxy)pyridin-4-yl)methyl)-2-methyl-3-oxopiperazine-1-carboxamide]	2.76 nM
O=C1CN(C(=O)NC(c2ccc(OCC(F)(F)F)nc2)c2ccc(F)c(Cl)c2)CCN1 (single isomer, unassigned) [Example 2A, N-((R or S)-(3-chloro-4-fluorophenyl)(6-(2,2,2-trifluoro-ethoxy)pyridin-3-yl)methyl)-3-oxopiperazine-1-carboxamide]	8.98 nM
C[C@H]1CN(C(=O)NC(c2ccc(F)c(Cl)c2)c2cccc(C(F)(F)F)n2)CC(=O)N1 (single isomer, unassigned) [Example 46A, (3S)-N-((R or S)-(3-chloro-4-fluoro-phenyl)(6-(trifluoro-methyl)pyridin-2-yl)methyl)-3-methyl-5-oxopiperazine-1-carboxamide]	924 nM
C[C@@H]1C(=O)NCCN1C(=O)NC(c1ccc(OC(F)(F)F)c(F)c1)c1cnc(C(F)(F)F)c(Cl)c1 (single isomer, unassigned) [Example 21A, (2R)-N-((R or S)-(5-chloro-6-(trifluoro-methyl)pyridin-3-yl)(3-fluoro-4-(trifluoromethoxy)phenyl)methyl)-2-methyl-3-oxopiperazine-1-carboxamide]	1.45 nM
C[C@@H]1C(=O)NCCN1C(=O)NC(c1cnc(OCC(F)(F)F)c(F)c1)c1ccc(F)c(C(F)(F)F)n1 (single isomer, unassigned) [Example 48A]	4.78 nM
C[C@@H]1C(=O)NCCN1C(=O)NC(c1ccc(Cl)c(F)c1)c1ccc(F)c(C(F)(F)F)n1 (single isomer, unassigned) [Example 53B, (2R)-N-((S or R)-(4-chloro-3-fluoro-phenyl)(5-fluoro-6-(trifluoromethyl)pyridin-2-yl)methyl)-2-methyl-3-oxopiperazine-1-carboxamide]	1.38 nM
C[C@@H]1C(=O)NCCN1C(=O)NC(c1ccc(F)c(Cl)c1)c1ccn(C(F)F)n1 (single isomer, unassigned) [Example 66A]	125 nM
C[C@@H]1C(=O)NCCN1C(=O)NC(c1cnc(C(F)(F)F)nc1)c1ccc(F)c(Cl)c1F (single isomer, unassigned) [Example 30B, (2R)-N-((S or R)-(3-chloro-2,4-difluoro-phenyl)(2-(trifluoro-methyl)pyrimidin-5-yl)methyl)-2-methyl-3-oxopiperazine-1-carboxamide]	9.18 nM
C[C@@H]1C(=O)NCCN1C(=O)NC(c1ccc(OC(F)(F)F)c(F)c1)c1ccc(C#N)c(C(F)(F)F)n1 (single isomer, unassigned) [Example 61A]	1.02 nM
O=C1CN(C(=O)NC(c2ccc(OCC(F)(F)F)nc2)c2ccc(F)c(Cl)c2F)CCN1 (single isomer, unassigned) [Example 8A, N-((R or S)-(3-chloro-2,4-difluorophenyl)(6-(2,2,2-trifluoroethoxy)pyridin-3-yl)methyl)-3-oxopiperazine-1-carboxamide]	4.46 nM
C[C@@H]1C(=O)NCCN1C(=O)NC(c1cnc(OC(F)F)nc1)c1ccc(F)c(Cl)c1F (single isomer, unassigned) [Example 74A, (2R)-N-((R or S)-(3-chloro-2,4-difluoro-phenyl)(2-(difluoro-methoxy)pyrimidin-5-yl)methyl)-2-methyl-3-oxopiperazine-1-carboxamide]	71.1 nM
C[C@@H]1C(=O)NCCN1C(=O)NC(c1ccc(OCC(F)(F)F)nc1)c1ccc(F)c(Cl)c1F (single isomer, unassigned) [Example 1B]	30.9 nM
C[C@@H]1C(=O)NCCN1C(=O)NC(c1cnc(OCC(F)(F)F)c(F)c1)c1ccc(F)c(Cl)c1F (single isomer, unassigned) [Example 10A, (2R)-N-((R or S)-(3-chloro-2,4-difluorophenyl)(5-fluoro-6-(2,2,2-trifluoroethoxy)pyridin-3-yl)methyl)-2-methyl-3-oxopiperazine-1-carboxamide]	1.18 nM

From patent publication US20240246932A1 (Merck Sharp & Dohme LLC, priority 2021, published 2024)
